We go through two compounds from patent US20240317736A1, “DEUTERATED DERIVATIVE AS ATX INHIBITOR, AND APPLICATION THEREOF” (Xizang Haisco Pharmaceutical Co., Ltd., priority 2020, published 2024).

For orientation: AUC means the area under the concentration-time curve, a measure of exposure. For orientation: half-life means how long it takes for the measured level to halve. A higher half-life goes with slow loss. By Cmax is commonly meant the peak of the concentration-time curve. For orientation: Tmax means the time at which the peak concentration occurs. For orientation: bioavailability means dose-corrected exposure relative to a reference, in per cent. Low values mean little systemic uptake, high ones much systemic uptake.

The nature of the data set: Pharmacokinetic test in rats. The data set is classed as in vivo. Particulars: male, SD, rat, plasma; for Cmax: read-out: C0 or Cmax; for bioavailability: PO 5 mg/kg vs IV 1 mg/kg. As for the experimental part:
Test objective: test compounds were given to SD rats via single-dose intravenous and intragastric administration, the concentrations of the test compounds in plasma of rats were measured, and the pharmacokinetic characteristics and bioavailability of test compounds in rats were evaluated.
Test animals: male SD rats, about 220 g, 6-8 weeks old, six rats/compound, purchased from Chengdu Ddossy Experimental Animals Co., Ltd.
Test method: on the day of the test, 6 SD rats were randomly grouped according to their body weights. The rats were fasted with water available for 12-14 h one day before the administration, and were fed 4 h after the administration. The administration was performed according to Table 5.
Before and after the administration, 0.1 mL of blood was taken from the orbits of the rats under isoflurane anaesthesia, and placed in an EDTAK2 centrifuge tube. Centrifugation was performed at 5000 rpm at 4° C. for 10 min, and plasma was collected.
Time points for sample collection in group G1 comprise 0 min, 5 min, 15 min, 30 min, 1 h, 2 h, 4 h, 6 h, 8 h and 24 h.
Time points for sample collection in group G2 comprise 0 min, 15 min, 30 min, 1 h, 2 h, 4 h, 6 h, 8 h and 24 h.
30 μL of each of plasma samples, standard curve samples and quality control samples was taken, and 200 μL of acetonitrile solution containing an internal standard was added, and the resulting mixture was homogeneously mixed by vortex and centrifuged at 4° C. at 12000 rpm for 10 min. 170 μL of the supernatant was taken to a 96-well plate, and LC-MS/MS analysis was performed, wherein the sample size was 2 μL.
The main pharmacokinetic parameters were analyzed by a non-compartmental model using WinNonlin 8.0 software.

Where two headings read alike, the source gives them in different places.

For `[2H]c1c([2H])c(-c2nc(N(C)c3c(CC)nn4cc(F)c(N5CCN(CC(=O)N6CC(O)C6)CC5)cc34)sc2C#N)c([2H])c([2H])c1F` [Compound 9, 2-((2-ethyl-6-fluoro-5-(4-(2-(3-hydroxyazetidin-1-yl)-2-oxoethyl)piperazin-1-yl)pyrazolo[1,5-a]pyridin-3-yl)(methyl)amino)-4-(4-fluorophenyl-2,3,5,6-d4)thiazole-5-carbonitrile], the bioavailability turned out to be 51.3 ± 18%. In addition, where the note is “IV 1 mg/kg”, the AUC is 943 ± 109 ng·h/mL, the half-life was 1.93 ± 0.072 h and the Cmax worked out at 748 ± 187 ng/mL. Also, where the note is “PO 5 mg/kg”, the AUC is 2420 ± 860 ng·h/mL, the Tmax was 1.17 ± 0.76 h, the half-life is 2.43 ± 0.33 h and the Cmax came out at 399 ± 137 ng/mL.

Turning to `[2H]c1c([2H])c(-c2nc(N(c3c(CC)nn4cc(F)c(N5CCN(CC(=O)N6CC(O)C6)CC5)cc34)C([2H])([2H])[2H])sc2C#N)c([2H])c([2H])c1F` [Compound 10, 2-((2-ethyl-6-fluoro-5-(4-(2-(3-hydroxyazetidin-1-yl)-2-oxoethyl)piperazin-1-yl)pyrazolo[1,5-a]pyridin-3-yl)(methyl-d3)amino)-4-(4-fluorophenyl-2,3,5,6-d4)thiazole-5-carbonitrile], the bioavailability came to 37.3 ± 6%. Also, where the note is “IV 1 mg/kg”, the AUC was 1050 ± 84 ng·h/mL, the half-life is 2.05 ± 0.29 h and the Cmax came to 813 ± 85 ng/mL. In addition, for the setting “PO 5 mg/kg”, the AUC worked out at 1960 ± 858 ng·h/mL, the Tmax stood at 2.83 ± 2 h, the half-life is 2.63 ± 0.071 h and the Cmax turned out to be 234 ± 136 ng/mL.
